The subject of this assay is anaesthetised Sprague Dawley rats. The experiment in a line: Blood pressure test (4-point test against the standard AVP). The format is in vivo. The note with it: result in words; for potency in respect of blood pressure increase: maximal blood pressure increase after intravenous injections, rats previously treated with dibenamine, related to standard AVP, compared with known derivatives 2 and 3; for specificity (ratio of potency blood pressure/potency antidiuresis, BP/AD): ratio of blood pressure potency to antidiuretic potency, compared with known compounds 1, 2 and 3; for length of the effect (index of persistence, I.P.): duration of the blood pressure effect in relation to standard AVP, compared with known substances 1, 2 and 3. An excerpt:
Vasotocin derivatives according to the invention have been tested for potency of both blood pressure and antidiuretic activity in a so-called 4-point test, i.e. the activity of the test substances has been related to a standard preparation (AVP = arginine-vasopressin), and the effects of two dose levels for each substance have been analysed. In addition, two known pressor-specific analogs (VT derivatives) have been tested for a comparison, namely 1-mpa-2-Phe-8-Orn-VT (mpa = 3-mercaptopropionyl) (Huguenin, R.L., Boissonnas, R.A., 1966. Helv. Chim. Acta, 49, 711), and 2-Phe-8-Orn-VT (SE-332993, Sandoz).
Blood pressure tests were carried out on anaesthetised Sprague Dawley rats (about 250 g), previously treated with dibenamine (Dekanski, J., 1952. Br. J. Pharmacol. 7, 567). Maximal blood pressure increase after intravenous injections of peptide was used as a measure of the effect, expressed as intensity.
In addition to potency determination based on effect intensity, a measure of the length of the effect has been stated (index of persistence (I.P.), Pli ? ka, V., 1966. Arzheim. Forsch. 16, 886). This dimensionless factor is a measure of the effect duration of the respective analog in relation to the standard AVP.
In these two tests, a comparison was made between the effects of the respective derivative and the effect of a standard preparation, AVP, and potency was determined with the aid of a 4-point test and is indicated in international units per milligram (IU/mg) (Stürmer, E., i: Handbook of Experimental Pharmacology, 1966, Vol 23, pp 130-189).

In the case of 1-Hmp-2-Phe-8-Dab-VT [compound 5], the “potency in respect of blood pressure increase” value is given as “very high potency” and the “specificity (ratio of potency blood pressure/potency antidiuresis, BP/AD)” value is “equivalent or higher specificity”.
Regarding Gly^o-1-Hmp-2-Phe-8-Orn-VT [compound 7], the “length of the effect (index of persistence, I.P.)” value was “considerably prolonged effect”; the “potency in respect of blood pressure increase” value was “surprisingly high blood pressure potency”; the “specificity (ratio of potency blood pressure/potency antidiuresis, BP/AD)” value is listed as “adequate specificity”.
For the substance 1-Hmp-2-Phe-8-Orn-VT [compound 4], the “potency in respect of blood pressure increase” value was “very high potency” and the “specificity (ratio of potency blood pressure/potency antidiuresis, BP/AD)” value was “equivalent or higher specificity”.
With 1-Hmp-2-Phe-8-Orn(Ala)-VT [compound 6], the “length of the effect (index of persistence, I.P.)” value is recorded as “considerably prolonged effect”; the “potency in respect of blood pressure increase” value is on record as “surprisingly high blood pressure potency”; the “specificity (ratio of potency blood pressure/potency antidiuresis, BP/AD)” value was “adequate specificity”.

Source of the values: EP0380554B1, “VASOACTIVE PEPTIDES” (Ferring AB, priority 1987, dated 1993).
